Test results reported in patent US10633407B2, “14-membered ketolides and methods of their preparation and use” (President and Fellows of Harvard College, priority 2014, dated 2020).
Converted amounts (≈) assume the structure as drawn. Read-outs that look alike come from different tables or passages of the source.

What was measured:
Assay in all cases: CLSI broth dilution MIC determination
Format in all cases: cell-based
E. coli ATCC 25922 = test system: E. coli ATCC 25922
Excerpt: (§1) MIC data was collected for the novel macrolides that this platform has produced against over 21 unique strains of B. subtilis, E. coli, S. aureus, S. pneumoniae, and H. influenzae, including several multidrug-resistant strains, with a special focus on macrolide resistant mechanisms (vide supra). Azithromycin (Azithro) and Solithromycin (Solithro) were included as a control macrolides in many cases. CLSI standard procedures for broth dilution MIC determination were used. […] These genotypes can be constitutive or inducible.

[1] = test system: E. coli MP-532 clinical-cErmB; conditions: Escherichia coli
Excerpt: as §1

E. coli MP-541 clinical = conditions: Escherichia coli, MP541CLINICAL, read-out: MIC
Excerpt: as §1

[2] = test system: E. coli MP-9 ATCC25922:tolC; conditions: Escherichia coli, ATCC25922
Excerpt: as §1

[3] = test system: S. aureus (MRSA) MP-513 ST-228 cErm (Clinical-cErm); conditions: Staphylococcus aureus, read-out: MIC
Excerpt: as §1

S. aureus ATCC 29213 = test system: S. aureus ATCC 29213
Excerpt: as §1

[4] = test system: S. aureus MP-17 ATCCBAA-977 (BAA 977 iErm); conditions: Staphylococcus aureus; S. aureus MP-17, ATCCBAA-977, iErm; read-out: MIC
Excerpt: as §1

S. aureus MRSA: USA300 = test system: S. aureus MRSA: USA300
Excerpt: as §1

A. baumannii ATCC 19606 = test system: A. baumannii ATCC 19606
K. pneumoniae ATCC 10031 = test system: K. pneumoniae ATCC 10031
P. aeruginosa ATCC 27853 = test system: P. aeruginosa ATCC 27853
P. aeruginosa MP-7 PAO1 = conditions: Pseudomonas aeruginosa, read-out: MIC
[5] = test system: P. aeruginosa MP-8 PAO1:mex (mex-oprM-deletion); conditions: Pseudomonas aeruginosa, PAO1
[6] = test system: K. pneumoniae MP-548 clinical; conditions: Klebsiella pneumoniae, MP548CLINICAL, read-out: MIC
[7] = test system: K. pneumoniae MP-546 Clinical-MDR; conditions: Klebsiella pneumoniae, read-out: MIC
[8] = test system: A. baumannii MP-577 Clinical-AZT low; conditions: Acinetobacter baumannii, read-out: MIC
[9] = test system: A. baumannii MP-576 Clinical-MDR; conditions: Acinetobacter baumannii, read-out: MIC
E. coli CTX-M-14 = conditions: Gram-negative
Excerpt: as §1

E. coli NDM-1 = conditions: Gram-negative
Excerpt: as §1

E. coli TEM-1 = conditions: E. coli TEM-1; Gram-negative
Excerpt: as §1

H. influenzae ATCC49247 = conditions: Gram-negative
Excerpt: as §1

K. pneumoniae TEM-10 = conditions: Gram-negative
Excerpt: as §1

S. aureus MRSA: USA100 = conditions: S. aureus MRSA: USA100; Gram-positive
Excerpt: as §1

S. aureus USA600, GISA = conditions: S. aureus USA600, GISA; Gram-positive
Excerpt: as §1

S. aureus erm A genotype = conditions: S. aureus erm A genotype; Gram-positive
Excerpt: as §1

S. pneumoniae ATCC 49619 = conditions: S. pneumoniae ATCC 49619; Gram-positive
Excerpt: as §1

[10] = test system: S. pneumoniae mef A genotype (second strain so labelled); conditions: Gram-positive
Excerpt: as §1

S. pyogenes ATCC 19615 = conditions: S. pyogenes ATCC 19615; Gram-positive
[11] = test system: S. pyogenes Macrolide-resistant; conditions: S. pyogenes Macrolide-resistant; Gram-positive
E. faecalis ATCC 29212 = conditions: E. faecalis ATCC 29212; Gram-positive
[12] = test system: E. faecalis Vancomycin-resistant; conditions: E. faecalis Vancomycin-resistant; Gram-positive
[13] = test system: A. baumannii imipenem-resistant; conditions: Gram-negative
[14] = test system: A. baumannii chromosomal class C; conditions: Gram-negative
A. baumannii IMP-4 = conditions: Gram-negative
K. pneumoniae KPC-2 = conditions: Gram-negative
K. pneumoniae SHV-12 = conditions: Gram-negative
[15] = test system: P. aeruginosa HPA101-1477; conditions: Gram-negative
[16] = test system: H. influenzae Erythro >4, Azithro 1; conditions: H. influenzae Erythro >4, Azithro 1; Gram-negative
Excerpt: as §1, with “Azithromycin (Azithro) and Solithromycin (Solithro) were included as a control macrolides in many cases.” left out

[17] = E. coli ATCC 25922, Gram-negative
[18] = S. aureus ATCC 29213, Gram-positive
[19] = S. aureus MRSA: USA300, Gram-positive
[20] = A. baumannii ATCC 19606, Gram-negative
[21] = K. pneumoniae ATCC 10031, Gram-negative
[22] = P. aeruginosa ATCC 27853, Gram-negative

| SMILES | MIC (E. coli ATCC 25922; [17]) | MIC (E. coli CTX-M-14) | MIC (E. coli NDM-1) | MIC (E. coli TEM-1) | MIC (H. influenzae ATCC49247) | MIC (K. pneumoniae TEM-10) | MIC (S. aureus ATCC 29213; [18]) | MIC (S. aureus MRSA: USA100) | MIC (S. aureus MRSA: USA300; [19]) | MIC (S. aureus USA600, GISA) | MIC (S. aureus erm A genotype) | MIC (S. pneumoniae ATCC 49619) | MIC [10] | MIC (S. pyogenes ATCC 19615) | MIC [11] | MIC (E. faecalis ATCC 29212) | MIC [12] | MIC (A. baumannii ATCC 19606; [20]) | MIC [13] | MIC [14] | further results |
| --- | --- | --- | --- | --- | --- | --- | --- | --- | --- | --- | --- | --- | --- | --- | --- | --- | --- | --- | --- | --- | --- |
| CC[C@H]1OC(=O)[C@@](C)(F)C(=O)[C@H](C)[C@@H](O[C@@H]2OC(C)CC(N(C)C)C2O)[C@](C)(OC)C[C@@H](C)C(=O)[C@H](C)[C@H]2N(CC#CCn3cc(-c4cnccn4)nn3)C(=O)O[C@]12C (some centres unmarked) [FSM-22746] |  |  |  |  |  |  |  |  |  |  |  |  |  |  |  |  |  |  |  |  | MIC (E. coli ATCC 25922; Escherichia coli, ATCC25922, E. coli ATCC 25922 (MP-4), read-out: MIC): 32 µg/mL (≈ 38.6 µM); MIC [1]: > 64 µg/mL; MIC (E. coli MP-541 clinical): 64 µg/mL (≈ 77.3 µM); MIC [2]: 4 µg/mL (≈ 4.83 µM); MIC [3]: > 64 µg/mL; MIC (S. aureus ATCC 29213; Staphylococcus aureus, ATCC29213, S. aureus ATCC 29213 (MP-12), read-out: MIC): 0.25 µg/mL (≈ 0.302 µM); MIC [4]: 0.25 µg/mL (≈ 0.302 µM); MIC (S. aureus MRSA: USA300; Staphylococcus aureus, S. aureus MRSA: USA300 (MP-549, msr(a)), read-out: MIC): 0.5 µg/mL (≈ 0.604 µM); MIC (A. baumannii ATCC 19606; Acinetobacter baumannii, ATCC19606, A. baumannii ATCC 19606 (MP-15), read-out: MIC): 16 µg/mL (≈ 19.3 µM); MIC (K. pneumoniae ATCC 10031; Klebsiella pneumoniae, ATCC10031, K. pneumoniae ATCC 10031 (MP-14), read-out: MIC): 8 µg/mL (≈ 9.66 µM); MIC (P. aeruginosa ATCC 27853; Pseudomonas aeruginosa, ATCC27853, P. aeruginosa ATCC 27853 (MP-3), read-out: MIC): > 64 µg/mL; MIC (P. aeruginosa MP-7 PAO1): > 64 µg/mL; MIC [5]: 16 µg/mL (≈ 19.3 µM); MIC [6]: > 64 µg/mL; MIC [7]: > 64 µg/mL; MIC [8]: 64 µg/mL (≈ 77.3 µM); MIC [9]: > 64 µg/mL |
| CC[C@H]1OC(=O)[C@@](C)(F)C(=O)[C@H](C)[C@@H](O[C@@H]2OC(C)CC(N(C)C)C2O)[C@](C)(OC)C[C@@H](C)C(=O)[C@H](C)[C@H]2N(C/C=C/Cn3cc(-c4cccc(N)n4)nn3)C(=O)O[C@]12C (some centres unmarked) [FSM-100407] | 16 µg/mL (≈ 19 µM) | > 32 µg/mL | > 32 µg/mL | > 32 µg/mL | 1 µg/mL (≈ 1.18 µM) | 32 µg/mL (≈ 37.9 µM) | < 0.0312 µg/mL | > 32 µg/mL | 0.5 µg/mL (≈ 0.592 µM) | > 32 µg/mL | > 32 µg/mL | < 0.0312 µg/mL | < 0.0312 µg/mL | < 0.0312 µg/mL | < 0.0312 µg/mL | < 0.0312 µg/mL | 16 µg/mL (≈ 19 µM) | 8 µg/mL (≈ 9.48 µM) | 8 µg/mL (≈ 9.48 µM) | 8 µg/mL (≈ 9.48 µM) | MIC (A. baumannii IMP-4): > 32 µg/mL; MIC (K. pneumoniae ATCC 10031; [21]): 4 µg/mL (≈ 4.74 µM); MIC (K. pneumoniae KPC-2): > 32 µg/mL; MIC (K. pneumoniae SHV-12): > 32 µg/mL; MIC (P. aeruginosa ATCC 27853; [22]): 32 µg/mL (≈ 37.9 µM); MIC [15]: > 32 µg/mL; MIC [16]: 1 µg/mL (≈ 1.18 µM) |
| CC[C@H]1OC(=O)[C@@](C)(F)C(=O)[C@H](C)[C@@H](O[C@@H]2OC(C)CC(N(C)C)C2O)[C@](C)(OC)C[C@@H](C)C(=O)[C@H](C)[C@H]2N(C/C=C/Cn3cc(-c4cccc(N)c4)nn3)C(=O)O[C@]12C (some centres unmarked) [FSM-11563] | 16 µg/mL (≈ 19 µM) | > 32 µg/mL | > 32 µg/mL | 16 µg/mL (≈ 19 µM) | 2 µg/mL (≈ 2.37 µM) | 32 µg/mL (≈ 38 µM) | 0.0625 µg/mL (≈ 0.0741 µM) | > 32 µg/mL | 0.125 µg/mL (≈ 0.148 µM) | > 32 µg/mL | > 32 µg/mL | ≤ 0.0312 µg/mL | ≤ 0.0312 µg/mL | ≤ 0.0312 µg/mL | ≤ 0.0312 µg/mL | ≤ 0.0312 µg/mL | 4 µg/mL (≈ 4.74 µM) | 4 µg/mL (≈ 4.74 µM) | 4 µg/mL (≈ 4.74 µM) | 2 µg/mL (≈ 2.37 µM) | MIC (A. baumannii IMP-4): > 32 µg/mL; MIC (K. pneumoniae ATCC 10031; [21]): 4 µg/mL (≈ 4.74 µM); MIC (K. pneumoniae KPC-2): > 32 µg/mL; MIC (K. pneumoniae SHV-12): > 32 µg/mL; MIC (P. aeruginosa ATCC 27853; [22]): 32 µg/mL (≈ 38 µM); MIC [15]: > 32 µg/mL; MIC [16]: 4 µg/mL (≈ 4.74 µM) |
